The results in this text go back to PubChem BioAssay AID248 (DTP/NCI, 2004).

Values joined by “and” are separate entries in the source; they are usually repeats but may differ in a detail not shown here. Identical values can stand only once. Toxic doses and inconclusive results are not listed.

For the assay, the system named is L1210 leukemia ip in BDF1 mice, survival T/C. In words: NCI In Vivo Anticancer Drug Screen. Data for tumor model L1210 Leukemia (intraperitoneal) in B6D2F1 (BDF1) mice. The following applies: endpoint: mean survival time, higher = longer survival. The essentials:
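Tumor was transplanted into mice, which were then dosed with test compound or vehicle alone. Survival was recorded for each group, and the treated figure was expressed relative to the control figure.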

Where [1] appears, read: dose: 100.0 mg/kg/injection, schedule: Q01DX001 (ip), vehicle: carboxymethylcellulose (CMC).
The mark [2] stands for this setting: dose: 200.0 mg/kg/injection, schedule: Q01DX001 (ip), vehicle: carboxymethylcellulose (CMC).
[3] abbreviates: dose: 400.0 mg/kg/injection, schedule: Q01DX001 (ip), vehicle: carboxymethylcellulose (CMC).
[4] abbreviates: dose: 100.0 mg/kg/injection, schedule: Q04DX003 (ip), vehicle: saline with Tween-80.
The mark [5] stands for this setting: dose: 200.0 mg/kg/injection, schedule: Q04DX003 (ip), vehicle: saline with Tween-80.
[6] abbreviates: dose: 400.0 mg/kg/injection, schedule: Q04DX003 (ip), vehicle: saline with Tween-80.
[7] abbreviates: dose: 100.0 mg/kg/injection, schedule: Q01DX009 (ip), vehicle: Klucel (hydroxypropylcellulose) (HPC).
Setting [8] is: dose: 100.0 mg/kg/injection, schedule: Q04DX003 (ip), vehicle: Klucel (hydroxypropylcellulose) (HPC).
[9] abbreviates: dose: 200.0 mg/kg/injection, schedule: Q01DX009 (ip), vehicle: Klucel (hydroxypropylcellulose) (HPC).
The mark [10] stands for this setting: dose: 200.0 mg/kg/injection, schedule: Q04DX003 (ip), vehicle: Klucel (hydroxypropylcellulose) (HPC).
Where [11] appears, read: dose: 400.0 mg/kg/injection, schedule: Q01DX009 (ip), vehicle: Klucel (hydroxypropylcellulose) (HPC).
The mark [12] stands for this setting: dose: 400.0 mg/kg/injection, schedule: Q04DX003 (ip), vehicle: Klucel (hydroxypropylcellulose) (HPC).
Where [13] appears, read: dose: 100.0 mg/kg/injection, schedule: Q04DX003 (ip), vehicle: saline.
[14] abbreviates: dose: 200.0 mg/kg/injection, schedule: Q04DX003 (ip), vehicle: saline.
Where [15] appears, read: dose: 400.0 mg/kg/injection, schedule: Q04DX003 (ip), vehicle: saline.

In the case of `O=C1C=CC2(CCC23C=CC(=O)O3)O1` (centres undefined), the T/C (dose: 13.0 mg/kg/injection, schedule: Q01DX Z (ip), vehicle: saline) is 96 % of control; the T/C (dose: 20.0 mg/kg/injection, schedule: Q01DX Z (ip), vehicle: saline) was 102 % of control; the T/C (dose: 30.0 mg/kg/injection, schedule: Q01DX Z (ip), vehicle: saline) was 104 % of control; the T/C (dose: 45.0 mg/kg/injection, schedule: Q01DX Z (ip), vehicle: saline) is 102 % of control and 109 % of control.
As to `CCCC(CCC)(S(=O)(=O)CC)S(=O)(=O)CC`, the T/C by setting is: under setting [1], 97 % of control; under setting [2], 97 % of control; under setting [3], 92 % of control.
Take `COC(=O)Nc1cccc(OC(=O)NC(C)C)c1`: the T/C by setting is: under setting [4], 95 % of control; under setting [5], 93 % of control; under setting [6], 93 % of control.
With `OCC(F)(F)C(F)(F)C(F)(F)C(F)F`, the T/C was 94 % of control (dose: 50.0 mg/kg/injection, schedule: Q01DX001 (ip), vehicle: saline); 102 % of control (dose: 100.0 mg/kg/injection, schedule: Q01DX001 (ip), vehicle: saline); 101 % of control under setting [7]; 102 % of control under setting [8]; 96 % of control (dose: 200.0 mg/kg/injection, schedule: Q01DX001 (ip), vehicle: saline); 101 % of control under setting [9]. In addition, the T/C is, setting by setting: under setting [10], 102 % of control; (dose: 400.0 mg/kg/injection, schedule: Q01DX001 (ip), vehicle: saline) 94 % of control; under setting [11], 103 % of control; under setting [12], 105 % of control.
Take `CC[n+]1cccc(NC(=O)c2ccc(NC(=O)c3ccc(C(=O)Nc4ccc5c(ccc[n+]5CC)c4)cc3)cc2)c1`: the T/C reads like this: (dose: 0.12 mg/kg/injection, schedule: Q01DX015 (oral), vehicle: alkali diluted with saline) 90 % of control; (dose: 0.25 mg/kg/injection, schedule: Q01DX015 (oral), vehicle: alkali diluted with saline) 90 % of control; (dose: 0.5 mg/kg/injection, schedule: Q01DX015 (oral), vehicle: alkali diluted with saline) 101 % of control; (dose: 0.55 mg/kg/injection, schedule: Q01DX Z (ip), vehicle: carboxymethylcellulose (CMC)) 107 % of control; (dose: 1.0 mg/kg/injection, schedule: Q01DX015 (oral), vehicle: alkali diluted with saline) 112 % of control; (dose: 2.2 mg/kg/injection, schedule: Q01DX Z (ip), vehicle: carboxymethylcellulose (CMC)) 181 % of control. Moreover, the T/C by setting is: (dose: 3.0 mg/kg/injection, schedule: Q01DX015 (ip), vehicle: alkali diluted with saline) 164 % of control; (dose: 4.4 mg/kg/injection, schedule: Q01DX Z (ip), vehicle: carboxymethylcellulose (CMC)) 165 % of control; (dose: 6.0 mg/kg/injection, schedule: Q01DX015 (ip), vehicle: alkali diluted with saline) 120 % of control; (dose: 10.0 mg/kg/injection, schedule: Q01DX Z (ip), vehicle: carboxymethylcellulose (CMC)) 113 % of control; (dose: 11.0 mg/kg/injection, schedule: Q01DX001 (ip), vehicle: alkali diluted with saline) 118 % of control; (dose: 15.0 mg/kg/injection, schedule: Q01DX Z (ip), vehicle: carboxymethylcellulose (CMC)) 110 % of control. The T/C is, setting by setting: (dose: 16.0 mg/kg/injection, schedule: Q01DX001 (ip), vehicle: alkali diluted with saline) 150 % of control; (dose: 25.0 mg/kg/injection, schedule: Q01DX015 (ip), vehicle: alkali diluted with saline) 102 % of control.
Regarding `O=C1NC(=O)C(c2ccc(Cl)cc2)(c2ccc(Cl)cc2)N1`, the T/C is, setting by setting: (dose: 45.0 mg/kg/injection, schedule: Q01DX009 (ip), vehicle: Klucel (hydroxypropylcellulose) (HPC)) 99 % of control; (dose: 65.0 mg/kg/injection, schedule: Q01DX009 (ip), vehicle: Klucel (hydroxypropylcellulose) (HPC)) 95 % of control; under setting [7], 100 % of control; under setting [13], 96 % of control; (dose: 150.0 mg/kg/injection, schedule: Q01DX009 (ip), vehicle: Klucel (hydroxypropylcellulose) (HPC)) 103 % of control; under setting [9], 100 % of control. Besides, the T/C reads like this: under setting [14], 92 % of control; under setting [11], 113 % of control; under setting [15], 97 % of control.
For `CCN(CC)CCSc1ccnc2cc(Cl)ccc12`, the T/C is 94 % of control under setting [13], 96 % of control under setting [14] and 100 % of control under setting [15].
As to `Cn1c(=O)c2c(ncn2CCOC(=O)C(C)(C)Oc2ccc(Cl)cc2)n(C)c1=O`, the T/C under setting [7] was 92 % of control; the T/C under setting [8] was 90 % of control; the T/C under setting [9] was 105 % of control; the T/C under setting [10] was 96 % of control; the T/C under setting [12] was 93 % of control.
For the molecule `CCc1c(C)nc2[nH]ncn2c1=O`, the T/C was 96 % of control (dose: 75.0 mg/kg/injection, schedule: Q01DX001 (ip), vehicle: other); 97 % of control (dose: 150.0 mg/kg/injection, schedule: Q01DX001 (ip), vehicle: other); 93 % of control (dose: 300.0 mg/kg/injection, schedule: Q01DX001 (ip), vehicle: other).
Turning to `O=S1(=O)CC(S(=O)(=O)O)C(S(=O)(=O)O)C1` (centres undefined), the T/C is 110 % of control (dose: 50.0 mg/kg/injection, schedule: Q01DX009 (ip), vehicle: saline); 103 % of control (dose: 100.0 mg/kg/injection, schedule: Q01DX009 (ip), vehicle: saline); 99 % of control (dose: 200.0 mg/kg/injection, schedule: Q01DX009 (ip), vehicle: saline); 93 % of control (dose: 400.0 mg/kg/injection, schedule: Q01DX009 (ip), vehicle: saline).
As to `CCCCCCCCCCCCCCCCCCCCCCCC(=O)OCC`, the T/C under setting [6] was 92 % of control.
`O=C(O)C(Oc1ccc(Cl)cc1Cl)C(=O)O`: the T/C is, setting by setting: (dose: 100.0 mg/kg/injection, schedule: Q04DX002 (ip), vehicle: other) 93 % of control; (dose: 200.0 mg/kg/injection, schedule: Q04DX002 (ip), vehicle: other) 97 % of control; (dose: 400.0 mg/kg/injection, schedule: Q04DX002 (ip), vehicle: other) 95 % of control.
Turning to `O=C(Nc1ccccc1F)N(CC(O)c1ccccc1)C1CCCCC1` (centres undefined), the T/C runs as follows: under setting [7], 97 % of control; under setting [9], 95 % of control; under setting [11], 94 % of control.
Regarding `CCC(N)c1ccc2c3c(cccc13)CC2` (centres undefined), the T/C is, setting by setting: (dose: 100.0 mg/kg/injection, schedule: Q01DX009 (ip), vehicle: saline with Tween-80) 88 % of control; under setting [4], 93 % of control; (dose: 200.0 mg/kg/injection, schedule: Q01DX009 (ip), vehicle: saline with Tween-80) 90 % of control; under setting [5], 90 % of control; (dose: 400.0 mg/kg/injection, schedule: Q01DX009 (ip), vehicle: saline with Tween-80) 93 % of control; under setting [6], 90 % of control.
For `COc1ccc([N+](=O)[O-])cc1NC(=O)C(Cl)Cl`, the T/C is, setting by setting: under setting [1], 99 % of control; under setting [2], 100 % of control; under setting [3], 110 % of control.
For the molecule `CC(CCC(=O)O)C1CCC2C3CCC4CC(OC=O)CCC4(C)C3CC(=O)C12C` (centres undefined), the T/C reads like this: (dose: 100.0 mg/kg/injection, schedule: Q01DX001 (ip), vehicle: saline with Tween-80) 98 % of control; (dose: 200.0 mg/kg/injection, schedule: Q01DX001 (ip), vehicle: saline with Tween-80) 95 % of control; (dose: 400.0 mg/kg/injection, schedule: Q01DX001 (ip), vehicle: saline with Tween-80) 101 % of control.
With `CCCCCCN1CC1`, the T/C is, setting by setting: (dose: 15.0 mg/kg/injection, schedule: Q01DX001 (ip), vehicle: saline) 102 % of control; (dose: 30.0 mg/kg/injection, schedule: Q01DX001 (ip), vehicle: saline) 98 % of control.
As to `Cc1nn(C)c2ccc([N+](=O)[O-])cc12`, the T/C reads like this: under setting [7], 91 % of control; under setting [9], 102 % of control; under setting [10], 97 % of control; under setting [11], 96 % of control; under setting [12], 98 % of control.
